Results on one substance are retold here after EP4623928A1, “GLP-1R ANTAGONISTS FOR THE TREATMENT OF CANCER” (Fiorina, Paolo, priority 2024, dated 2025).

Experiment [1] concerns untransduced-mock and pmY-GLP-1R transduced CD3^+ T cells. In words: Seahorse bioenergetic analysis, mock and pmY-GLP-1R transduced CD3+ T cells. Type of experiment: cell-based, murine. Particulars: pmY-GLP-1R transduced vs untransduced-mock CD3^+ T cells, Exe-4 (1 nM). Here is the method: Cellular Bioenergetics were analyzed using the Seahorse Extracellular Flux Analyzer Xfe96 (Agilent Technologies, Santa Clara, CA, United States), which simultaneously measures Oxygen Consumption Rate (OCR, pmolO2/min), ExtraCellular Acidification Rate (ECAR, mpH/min) and Proton Efflux Rate (PER, pmolH^+/min). For Seahorse experiments 150.000 cells either freshly isolated GLP-1R^pos or GLP-1R^neg CD3^+ T cells or activated with soluble anti-CD3/CD28 at 0.5 µg/ml each in the presence or not of Exe-4 (1 nM); in another setting untransduced mock CD3^+ T cells or pmY-GLP-1R CD3^+ T cells already activated with soluble anti-CD3/CD28 at 0.5 µg/ml each in the presence or not of Exe-4 (1 nM). Cells were resuspended in 50 µL assay medium (Agilent #103576-100 RPMI Medium pH7.4, supplemented with 10mM glucose, 2mM glutamine and 1mM Na-pyruvate) were seeded in each CellTak-precoated well of an Agilent Xfe96 Pro well plate. The cell plate was centrifuged 2 times at 40 × g (zero braking) for 1 minute. After centrifugation, 150 µL warm assay medium was gently added to each well. […]
Seahorse parameters were normalized to cell number in each well. To this purpose, at the end of the Seahorse analysis, cell nuclei were stained with Hoechst 33342 (1 µg/mL) for about 15 min, imaged and counted with Operetta CLS™ software Harmony, as previously described (43). […]

The subject of experiment [2] is islet allografts. The experiment can be described thus: Murine islet allotransplantation (BALB/c islets into STZ-treated C57BL/6 mice). Type of experiment: in vivo. On the procedure: Pancreatic islets from BALB/c mice were isolated by collagenase digestion and density gradient separation as previously described (33, 34). Subsequently, four to five hundred islets were inoculated under the renal capsule of each C57BL/6 recipient rendered diabetic with streptozotocin (STZ) (200 mg/kg, administered i.p. Sigma-Aldrich). Islet transplantation success was confirmed by glycaemia normalization. Rejection of islet allografts was defined as blood glucose levels >250 mg/dl for at least 2 consecutive days (35). Treatment modalities were the following: transplanted mice were intraperitoneally injected according to the following protocols: 1) Exendin-4 (Exe-4) (Amylin Pharmaceuticals, San Diego, CA -USA) 0.2pg twice/day for two weeks after transplant; 2) Exe-4 0.2pg twice/day from the day before until two weeks after transplant; 3) Exendin-4 2µg twice/day from the day before until two weeks after transplant; 4) Exendin-4 2µg twice/day + Exendin-9-39 (Exe-9) (Sigma-Aldrich) 2µg twice/day from the day before until two weeks after transplant; 5) Exendin-4 2µg twice/day from the day before until two weeks after transplant + Rapamycin 0.1mg/die for two weeks; 6) saline 0.5ml twice/day for two weeks. The follow-up of the transplanted mice was for 100 days.

Experiment [3] deals with effector T cells. In words: Effector T cell suppression by iTregs generated with Exe-4 (CTV dilution). Type of experiment: cell-based. Particulars: iTregs generated in the presence of Exe-4, ratio of 1: 4 to effector T cells, vs untreated-iTregs.
In experiment [4] the test system is GLP-1R^pos and GLP-1R^neg CD3^+ T cells. In words: Transwell migration assay toward SDF-1, GLP-1Rpos and GLP-1Rneg CD3+ T cells. Type of experiment: cell-based, C57BL/6 mice. Particulars: GLP-1R^neg CD3^+ T cells only, Exe-4 (1 nM), SDF-1 gradient. Here is the method:
Transwell migration assays were performed on GLP-1R^pos and GLP-1R^neg CD3^+ cells or respectively untransduced-mock CD3^+ T cells or pmY-GLP-1R transduced CD3^+ T cells, freshly isolated or activated with anti-CD3/CD28 (0.5 µg /ml each) in the presence or not of Exe-4 (1 nM). Chemotaxis assessments via transwell migration assay were performed using polycarbonate membranes with 5 µm pores (Corning) in accordance with the manufacturer's instructions and as previously published (42). Cells were washed, re-suspended in migration media (RPMI), and added to the upper chamber of the plate, while migration media containing 0 or 50 ng/mL SDF-1 (R&D Systems) was added to the bottom chamber. Treated cells were incubated over night at 37°C to migrate through the polycarbonate membrane into the bottom chamber. Input cell counts were obtained by flow cytometry with a BD FACSCelesta (BD, Biosciences) as well as cell counts of migrated cells in the lower chambers. Migration percentage was calculated as the number of cells in the lower chamber (migrated) compared to total input cell count for three separate wells. Mean migration percentages and standard deviations (SD) were calculated across the different donor cell lots. Analysis of lower chambers without SDF-1 (negative gradients) was used to control for any nonspecific increase in chemotaxis.

Experiment [5] concerns untransduced-mock and pmY-GLP-1R transduced CD3^+ T cells. The experiment can be described thus: Proliferation, apoptosis and IFN-γ expression of untransduced-mock and pmY-GLP-1R transduced CD3+ T cells. Type of experiment: cell-based, murine. Particulars: Exe-4. On the procedure:
The mGLP-1R cDNA construct (Origene) was inserted into the pMY-IRES-GFP plasmid (Cell BioLabs, Inc., San Diego, CA). The Platinum-E Retroviral Packaging cell line was transfected with the pMY-IRES-GFP plasmid expressing GLP-1R using polybrene (Santa Cruz Biotechnology), and supernatant was collected. T cells were activated for 48 hours in the presence of soluble anti-CD3/CD28 at 0.5 µg/ml each in the presence of IL-2 (400 ng/ml) (R&D Systems), and viral supernatant was added. The upregulation of GLP-1R was assessed by FACS and western blot analysis.

Where [6] appears, read: both untransduced-mock and pmY-GLP-1R transduced CD3^+ T cells.

For Exendin-4 [Exe-4], in experiment [1], the “ATP production from mitochondrial respiration” value is “significantly increased” and the OCR values result is listed as “significantly increased”. For the same substance, in experiment [2] (high doses of Exe-4 preceded by a pre-treatment), the “recipients with prolongation of islet survival up to 100 days” value stood at 60%. In experiment [2] (high doses of Exe-4 preceded by a pre-treatment (2µg twice/day, i.p.), p<0.001 vs untreated), the “[MST] (islet allograft survival)” value came out at 67 days. Also, the “graft infiltration (Hematoxylin and eosin staining)” value in experiment [2] (islet allograft at day 14, Exe-4-treated mice) is reported as “decreased graft infiltration”. Further, the “recipients with prolongation of islet survival up to 100 days” value in experiment [2] (low dose of Exe-4) is reported as 20%. The “[MST] (islet allograft survival)” value in experiment [2] (low dose of Exe-4 (b66 prints 0.2pg twice/day, i.p.), untreated [MST]=12 days, p=0.001) was determined as 41 days. In experiment [2] (splenic, Exe-4 treatment), the “CD8^+ effector memory cells” value is given as “reduction” and the Treg lymphocytes entry is given as “significant increase”. The “suppression of effector T cells by iTregs” value in experiment [3] was “significantly reduced suppression”. Moreover, the migratory potential entry in experiment [4] is recorded as “reduced”. Further, in experiment [5] (setting [6]), the IFN-γ expression result was “without any effect” and the proliferation entry is “no effect”. The apoptosis result in experiment [5] (pmY-GLP-1R transduced CD3^+ T cells only) is recorded as “significantly increased”.
